Values quoted from earlier work, collected in PMC6838683, “Discovery of Human Signaling Systems: Pairing Peptides to G Protein-Coupled Receptors” (Cell, 2019).
Where two headings read alike, the source gives them in different places. No end group written: not given here.

Molecular target: human GPCRs
Set-up: method as in Guide to Pharmacology database
Details: cited from earlier work
Text: Supplement mmc1.xlsx, sheet "HumanGPCRLigands" | column: pKi_value; pKd_value; pEC50_value; pIC50_value

[1] = receptor bkrb1_human (BDKRB1, P46663), max reported value, ref Guide to Pharmacology database
[2] = receptor pacr_human (ADCYAP1R1, P41586), max reported value, ref Guide to Pharmacology database
[3] = receptor vipr1_human (VIPR1, P32241), max reported value, ref Guide to Pharmacology database
[4] = receptor vipr2_human (VIPR2, P41587), max reported value, ref Guide to Pharmacology database
[5] = receptor OPRD1 (oprd_human, P41143), max reported value, ref Guide to Pharmacology database
[6] = receptor OPRM1 (oprm_human, P35372), max reported value, ref Guide to Pharmacology database
[7] = receptor apj_human (APLNR, P35414), max reported value, ref Guide to Pharmacology database
[8] = receptor mrgx1_human (MRGPRX1), Class A orphans, max reported value, ref Guide to Pharmacology database
[9] = receptor OPRK1 (oprk_human, P41145), max reported value, ref Guide to Pharmacology database
[10] = receptor gipr_human (GIPR, P48546), max reported value, ref Guide to Pharmacology database
[11] = receptor ghsr_human (GHSR, Q92847), max reported value, ref Guide to Pharmacology database
[12] = receptor glp1r_human (GLP1R, P43220), max reported value, ref Guide to Pharmacology database
[13] = receptor glp2r_human (GLP2R, O95838), max reported value, ref Guide to Pharmacology database
[14] = receptor kissr_human (KISS1R, Q969F8), max reported value, ref Guide to Pharmacology database
[15] = receptor nmur1_human (NMUR1, Q9HB89), max reported value, ref Guide to Pharmacology database
[16] = receptor nmur2_human (NMUR2, Q9GZQ4), max reported value, ref Guide to Pharmacology database
[17] = receptor npbw2_human (NPBWR2, P48146), max reported value, ref Guide to Pharmacology database
[18] = receptor npbw1_human (NPBWR1, P48145), max reported value, ref Guide to Pharmacology database
[19] = receptor NPY4R (npy4r_human, P50391), max reported value, ref Guide to Pharmacology database
[20] = receptor NPY5R (npy5r_human, Q15761), max reported value, ref Guide to Pharmacology database
[21] = receptor OPRL1 (oprx_human, P41146), max reported value, ref Guide to Pharmacology database
[22] = receptor RXFP1 (rxfp1_human, Q9HBX9), max reported value, ref Guide to Pharmacology database
[23] = receptor RXFP2 (rxfp2_human, Q8WXD0), max reported value, ref Guide to Pharmacology database
[24] = receptor RXFP3 (rl3r1_human, Q9NSD7), max reported value, ref Guide to Pharmacology database

Substance: SRIF-14
- pKi_value (receptor SSTR1 (ssr1_human, P30872), max reported value, ref Guide to Pharmacology database): 9.5
- pKi_value (receptor SSTR2 (ssr2_human, P30874), max reported value, ref Guide to Pharmacology database): 10.5
- pKi_value (receptor SSTR3 (ssr3_human, P32745), max reported value, ref Guide to Pharmacology database): 10
- pKi_value (receptor SSTR4 (ssr4_human, P31391), max reported value, ref Guide to Pharmacology database): 9.3
- pKi_value (receptor SSTR5 (ssr5_human, P35346), max reported value, ref Guide to Pharmacology database): 9.9

Substance: T-kinin (ISRPPGFSPFR)
- pKi_value [1]: 5.2

Substance: TIP39
- pIC50_value (receptor pth2r_human (PTH2R, P49190), max reported value, ref Guide to Pharmacology database): 9.2

Substance: VIP
- pEC50_value [2]: 7.8
- pIC50_value [2]: 6
- pKi_value [2]: 6.3
- pEC50_value [3]: 7.9
- pIC50_value [3]: 8
- pKi_value [3]: 9
- pEC50_value [4]: 7.3
- pIC50_value [4]: 8.3
- pKi_value [4]: 8.7

Substance: [Leu]enkephalin
- pKi_value [5]: 8.7
- pKi_value [6]: 8.1

Substance: amylin (KCNTATCATQRLANFLVHSSNNFGAILSSTNVGSNTY; not fully specified; cysteine pairing not given here; UniProt P10997 34-70, looked up)
- pEC50_value (receptor calcr_human (CALCR), Calcitonin receptors, Class B1 (Secretin), max reported value, ref Guide to Pharmacology database): 9.2

Substance: angiotensin II (DRVYIHPF)
- pIC50_value (receptor agtr1_human (AGTR1, P30556), max reported value, ref Guide to Pharmacology database): 9.3
- pKd_value (receptor agtr2_human (AGTR2, P50052), max reported value, ref Guide to Pharmacology database): 10.2

Substance: apelin-13
- pIC50_value: 9.5

Substance: apelin-17
- pIC50_value [7]: 9

Substance: apelin-36 (LVQPRGSRNGPGPWQGGRRKFRRQRPRLSHKGPMPF; not fully specified; UniProt Q9ULZ1 42-77, looked up)
- pIC50_value [7]: 8.6

Substance: bovine adrenal medulla peptide 8-22
- pEC50_value [8]: 7.8
- pKd_value [8]: 8
- pKi_value [8]: 7.7

Substance: calcitonin
- pEC50_value (receptor calcr_human (CALCR, P30988), Calcitonin receptors, max reported value, ref Guide to Pharmacology database): 11.2

Substance: corticotrophin-releasing hormone
- pKd_value (receptor crfr1_human (CRHR1, P34998), max reported value, ref Guide to Pharmacology database): 9
- pKd_value (receptor crfr2_human (CRHR2, Q13324), max reported value, ref Guide to Pharmacology database): 7.4

Substance: dynorphin A
- pKi_value [5]: 7.4
- pKi_value [9]: 10.8
- pKi_value [6]: 8.1

Substance: dynorphin A-(1-8)
- pKi_value [5]: 8.4
- pKi_value [9]: 9.9
- pKi_value [6]: 8.4

Substance: dynorphin A-(1-13)
- pKi_value [5]: 7.8
- pKi_value [9]: 10.7
- pKi_value [6]: 8.3

Substance: endothelin-2 (CSCSSWLDKECVYFCHLDIIW; ends and bridges not checked; cysteine pairing not given here; UniProt P20800 49-69, looked up)
- pIC50_value (receptor ednra_human (EDNRA, P25101), max reported value, ref Guide to Pharmacology database): 8.2

Substance: endothelin-3
- pKd_value (receptor ednrb_human (EDNRB, P24530), max reported value, ref Guide to Pharmacology database): 11.5

Substance: galanin-like peptide (APAHRGRGGWTLNSAGYLLGPVLHLPQMGDQDGKRETALEILDLWKAIDGLPYSHPPQPS; not fully specified; UniProt Q9UBC7 25-84, looked up)
- pIC50_value (receptor galr1_human (GALR1, P47211), max reported value, ref Guide to Pharmacology database): 7.1
- pIC50_value (receptor galr2_human (GALR2, O43603), max reported value, ref Guide to Pharmacology database): 7.7
- pIC50_value (receptor galr3_human (GALR3, O60755), max reported value, ref Guide to Pharmacology database): 8

Substance: gastric inhibitory polypeptide
- pKd_value [10]: 8.7
- pKi_value [10]: 9.1

Substance: ghrelin (GSSFLSPEHQRVQQRKESKKPPAKLQPR; not fully specified; ends and bridges not checked; UniProt Q9UBU3 24-51, looked up)
- pEC50_value [11]: 7.5
- pKd_value [11]: 9.4
- pKi_value [11]: 8.1

Substance: glucagon
- pKi_value [12]: 7
- pEC50_value (receptor glr_human (GCGR, P47871), max reported value, ref Guide to Pharmacology database): 9

Substance: glucagon-like peptide 1-(7-36) amide
- pKi_value [12]: 9.2

Substance: glucagon-like peptide 2
- pIC50_value [13]: 8.5

Substance: glucagon-like peptide 2-(3-33) (DGSFSDEMNTILDNLAARDFINWLIQTKITD; Glucagon-like peptide 2; UniProt P01275 148-178, looked up, fragment)
- pIC50_value [13]: 7.4

Substance: humanin
- pEC50_value (receptor fpr3_human (FPR3, P25089), max reported value, ref Guide to Pharmacology database): 8.9

Substance: kallidin
- pKi_value [1]: 8.9
- pIC50_value (receptor bkrb2_human (BDKRB2, P30411), max reported value, ref Guide to Pharmacology database): 9.3

Substance: kisspeptin-13 (LPNYNWNSFGLRF; not fully specified; ends and bridges not checked; UniProt Q15726 109-121, looked up)
- pKi_value [14]: 8.4

Substance: kisspeptin-14 (DLPNYNWNSFGLRF; not fully specified; ends and bridges not checked; UniProt Q15726 108-121, looked up)
- pKi_value [14]: 8.8

Substance: kisspeptin-54 (GTSLSPPPESSGSPQQPGLSAPHSRQIPAPQGAVLVQREKDLPNYNWNSFGLRF; ends and bridges not checked; UniProt Q15726 68-121, looked up)
- pKi_value [14]: 9.5

Substance: lysophosphatidylinositol
- pEC50_value (receptor GPR55 (gpr55_human, Q9Y2T6), max reported value, ref Guide to Pharmacology database): 7.3

Substance: melanin-concentrating hormone
- pKi_value (receptor mchr1_human (MCHR1, Q99705), max reported value, ref Guide to Pharmacology database): 10.5
- pIC50_value (receptor mchr2_human (MCHR2, Q969V1), max reported value, ref Guide to Pharmacology database): 9.2

Substance: neuromedin S-33 (ILQRGSGTAAVDFTKKDHTATWGRPFFLFRPRN; not fully specified; ends and bridges not checked; UniProt Q5H8A3 109-141, looked up)
- pEC50_value [15]: 10.2
- pIC50_value [15]: 10
- pEC50_value [16]: 10
- pIC50_value [16]: 9.2

Substance: neuromedin U-25 (FRVDEEFQSPFASQSRGYFLFRPRN-NH2)
- pEC50_value [15]: 9.4
- pKi_value [15]: 9.5
- pEC50_value [16]: 9.4
- pKi_value [16]: 9.6

Substance: neuropeptide B-23 (WYKPAAGHSSYSVGRAAGLLSGL)
- pIC50_value [17]: 8.4

Substance: neuropeptide B-29 (WYKPAAGHSSYSVGRAAGLLSGLRRSPYA; not fully specified; UniProt Q8NG41 25-53, looked up)
- pIC50_value (receptor NPBWR2 (npbw2_human, P48146), max reported value, ref Guide to Pharmacology database): 9
- pIC50_value [18]: 9.5

Substance: neuropeptide FF
- pKi_value (receptor npff1_human (NPFFR1, Q9GZQ6), max reported value, ref Guide to Pharmacology database): 9.9
- pKi_value (receptor npff2_human (NPFFR2, Q9Y5X5), max reported value, ref Guide to Pharmacology database): 9.7

Substance: neuropeptide W-23 (WYKHVASPRYHTVGRAAGLLMGL)
- pIC50_value [18]: 10
- pIC50_value [17]: 9.6

Substance: neuropeptide W-30 (WYKHVASPRYHTVGRAAGLLMGLRRSPYLW; not fully specified; UniProt Q8N729 33-62, looked up)
- pIC50_value [18]: 10.6
- pIC50_value [17]: 9.4

Substance: neuropeptide Y
- pKi_value [19]: 8
- pKi_value [20]: 9.1

Substance: nociceptin/orphanin FQ
- pEC50_value [21]: 9.8
- pKi_value [21]: 10.4

Substance: orexin-A (QPLPDCCRQKTCSCRLYELLHGAGNHAAGILTL; not fully specified; ends and bridges not checked; UniProt O43612 34-66, looked up)
- pEC50_value (receptor HCRTR1 (ox1r_human, O43613), max reported value, ref Guide to Pharmacology database): 10.2
- pEC50_value (receptor HCRTR2 (ox2r_human, O43614), max reported value, ref Guide to Pharmacology database): 10

Substance: pancreatic polypeptide
- pKi_value [19]: 10.9
- pKi_value [20]: 8

Substance: relaxin
- pEC50_value [22]: 10.4
- pKi_value [22]: 10.2
- pEC50_value [23]: 9.1
- pKi_value [23]: 8.5
- pEC50_value [24]: 8.4
- pKd_value [24]: 10
